Key:
immobilized GMP-140 [1] = test: ELISA (avidin detection) of binding of biotinylated monoclonal antibodies G1, G2, G3 to immobilized GMP-140 in presence of soluble peptide; parameters: species or system human; conditions: for % Binding of Biotinylated MAbs G1: peptide 1.5 mM added to biotinylated mAb G1 (2.5 micrograms/ml) before addition to immobilized GMP-140; for % Binding of Biotinylated MAbs G2: peptide 1.5 mM added to biotinylated mAb G2 (2.5 micrograms/ml) before addition to immobilized GMP-140; for % Binding of Biotinylated MAbs G3: peptide 1.5 mM added to biotinylated mAb G3 (2.5 micrograms/ml) before addition to immobilized GMP-140
Procedure: Based on competitive ELISAs with the purified protein, G1, G2, and G3 each recognize distinct or only partially overlapping epitopes. 1.5 mM peptide was added to biotinylated mAb at a concentration of 2.5 micrograms/ml, which were then added to the wells containing GMP-140, as described in example 1. Binding was measured by an ELISA with an avidin detection system.
The monoclonal antibodies were biotinylated as follows: to 0.5 ml of purified IgG antibody (1 mg/ml in PBS, pH 7.4) was added 50 µl of 3.2 mM N-hydroxysuccinimide biotin in dimethyl sulfoxide and 50 µl of 1 M NaHCO3. After a 2 hour incubation at room temperature in the dark, the reaction was stopped with 50 µl of 1 M NH4Cl. The biotinylated antibody was then separated from other components by gel filtration on a PD-10 column equilibrated in PBS. The ELISA was performed as follows; all steps were performed at room temperature.
Biotinylated antibody (2.5 µg/ml) with or without 1.5 mM peptide was incubated with wells coated with GMP-140 as described in example 1. After a 2 hour incubation, the antibody was removed, the wells were washed, and 0.1 ml of horseradish peroxidase-conjugated stepavidin (Pierce), diluted 1:1,000 in HBSS/HSA, was added for 30 min. The wells were then washed and 0.1 ml of peroxidase substrate (Pierce) was added for 15 min. The color reaction was read at 405 nm.

immobilized GMP-140 [2] = test: Neutrophil adhesion to purified GMP-140 immobilized on plastic wells (myeloperoxidase read-out); assay type: cell-based, human; conditions: for inhibition of neutrophil adhesion to immobilized GMP-140 by peptides: peptide screen, result in words; for inhibition of binding of neutrophils to immobilized GMP-140, dependence on concentration: 0.1 mM to 1.5 mM peptide, Figure 2
Description: Peptides were screened for their ability to inhibit neutrophil adhesion to purified GMP-140 immobilized on plastic wells, using the assay described by Geng, et al., Nature 343, 757-760 (1990).
Human neutrophils are isolated from heparinized whole blood by density gradient centrifugation on Mono-Poly resolving media, Flow Laboratories. Neutrophil suspensions are greater than 98% pure and greater than 95% viable by trypan blue exclusion. For adhesion assays, neutrophils are suspended at a concentration of 2 x 10^6 cells/ml in Hanks' balanced salt solution containing 1.26 mM Ca^2+ and 0.81 mM Mg^2+ (HBSS, Gibco) with 5 mg/ml human serum albumin (HBSS/HSA). Adhesion assays are conducted in triplicate in 96-well microtiter plates, Corning, incubated at 4°C overnight with 50 microliters of various protein solutions.
GMP-140 is plated at 5 micrograms/ml and the control proteins: human serum albumin (Alb), platelet glycoprotein IIb/IIIa (IIb), von Willebrand factor (vWF), fibrinogen (FIB), thrombomodulin (TM), gelatin (GEL) or human serum (HS), are added at 50 micrograms/ml. All wells are blocked for 2 h at 22°C with 300 microliters HBSS containing 10 mg/ml HSA, then washed three times with HBSS containing 0.1% Tween-20 and once with HBSS. Cells (2 x 10^5 per well were added to the wells and incubated at 22°C for 20 min. The wells were then filled with HBSS/HSA, sealed with acetate tape (Dynatech), and centrifuged inverted at 150 g for 5 min. After discarding nonadherent cells and supernates, the contents of each well are solubilized with 200 microliters 0.5% hexadecyltrimethylammonium bromide, Sigma, in 50 mM potassium phosphate, pH 6.0, and assayed for myeloperoxidase activity, Ley, et al., Blood 73, 1324-1330 (1989). The number of cells bound was derived from a standard curve of myeloperoxidase activity versus numbers of cells. Under all assay conditions, the cells released less than 5% of total myeloperoxidase and lactate dehydrogenase. Results are presented in Table I. 100% adhesion is that seen in the presence of the C-terminal peptide (amino acid residues 761-777 of GMP-140) as a negative control; this value is the same as controls in which neither peptide nor antibody is added to the cells. Inhibition is read as a lower percent adhesion, so that a value of 5% means that 95% of the specific adhesion was inhibited.
Peptides from the lectin-like domain of GMP-140 were assayed for their ability to inhibit adhesion of neutrophils to immobilized GMP-140 in the assay described in example 1. Concentrations tested ranged from 0.1 mM to 1.5 mM.

neutrophils [3] = test: Specific binding of [125I]GMP-140 to neutrophils (enzyme-treated cells or with competitors); parameters: species or system human; conditions: 6.5 µM of conjugate, 65 µM of oligosaccharide; coupled to bovine serum albumin at about 10:1
neutrophils [4] = test: Adhesion of neutrophils to microtiter wells coated with lectin peptide 19-34-KLH conjugate or GMP-140; assay type: cell-based, human; conditions: peptide 1.5 mM; Figure 3
Procedure: GMP-140 is plated at 5 micrograms/ml and the control proteins: human serum albumin (Alb), platelet glycoprotein IIb/IIIa (IIb), von Willebrand factor (vWF), fibrinogen (FIB), thrombomodulin (TM), gelatin (GEL) or human serum (HS), are added at 50 micrograms/ml. All wells are blocked for 2 h at 22°C with 300 microliters HBSS containing 10 mg/ml HSA, then washed three times with HBSS containing 0.1% Tween-20 and once with HBSS. […] Inhibition is read as a lower percent adhesion, so that a value of 5% means that 95% of the specific adhesion was inhibited.
Lectin peptide 19-34 was conjugated to the carrier protein keyhole limpet hemocyanin by its N-terminal cysteine by standard procedures such as the commercial Imject kit from Pierce Chemicals. This peptide-KLH conjugate was then tested in the assay described in example 1 and the numbers of cells bound determined. […]

Substance | % Binding of Biotinylated MAbs G1 (immobilized GMP-140 [1]) [%] | % Binding of Biotinylated MAbs G2 (immobilized GMP-140 [1]) [%] | % Binding of Biotinylated MAbs G3 (immobilized GMP-140 [1]) [%] | further results
LECTIN 110-116: synthetic peptide, amino acids 110-116 of the lectin domain of GMP-140 (LKKKHAL; UniProt P16109 151-157, looked up, fragment) | 98 | 100 | 108 | 
LECTIN 73-89: synthetic peptide, amino acids 73-89 of the lectin domain of GMP-140 (AENWADNEPNNKRNNED; UniProt P16109 114-130, looked up, fragment) | 95 | 99 | 94 | inhibition of neutrophil adhesion to immobilized GMP-140 by peptides (immobilized GMP-140 [2]): inhibited adhesion
sialyl Le^x |  |  |  | inhibition of GMP-140 binding by multivalent neoglycoconjugates (neutrophils [3]): failed to inhibit binding
REPEATS 544-556: control peptide from one of the consensus repeats of GMP-140, amino acids 544-556 | 107 | 96 | 111 | 
amino acids 73-83: peptide from the GMP-140 lectin domain, amino acids 73-83 (AENWADNEPNN; UniProt P16109 114-124, looked up, fragment) |  |  |  | inhibition of binding of neutrophils to immobilized GMP-140, dependence on concentration (immobilized GMP-140 [2]): inhibited binding in a dose-dependent manner
LECTIN 54-72: synthetic peptide, amino acids 54-72 of the lectin domain of GMP-140 (RKNNKTWTWVGTKKALTNE; UniProt P16109 95-113, looked up, fragment) | 106 | 125 | 104 | inhibition of neutrophil adhesion to immobilized GMP-140 by peptides (immobilized GMP-140 [2]): inhibited adhesion
TRANSMEMBRANE 755-761: control peptide from the transmembrane region of GMP-140, amino acids 755-761 (RKRFRQK; UniProt P16109 796-802, looked up, fragment) | 100 | 119 | 104 | 
amino acids 54-63: peptide from the GMP-140 lectin domain, amino acids 54-63 (RKNNKTWTWV; UniProt P16109 95-104, looked up, fragment) |  |  |  | inhibition of binding of neutrophils to immobilized GMP-140, dependence on concentration (immobilized GMP-140 [2]): inhibited binding in a dose-dependent manner
LECTIN 19-30: synthetic peptide, amino acids 19-30 of the lectin domain of GMP-140 (CQNRYTDLVAIQ; UniProt P16109 60-71, looked up, fragment) |  |  | 54 | 
amino acids 23-30: peptide from the GMP-140 lectin domain, amino acids 23-30 (YTDLVAIQ; UniProt P16109 64-71, looked up, fragment) |  |  |  | inhibition of binding of neutrophils to immobilized GMP-140, dependence on concentration (immobilized GMP-140 [2]): inhibited binding in a dose-dependent manner
amino acids 66-78: overlapping peptide of amino acids 66-78 of the GMP-140 lectin domain (KKALTNEAENWAD; UniProt P16109 107-119, looked up, fragment) |  |  |  | inhibition of binding of neutrophils to immobilized GMP-140, dependence on concentration (immobilized GMP-140 [2]): inhibited binding in a dose-dependent manner; inhibition of neutrophil adhesion to immobilized GMP-140 by peptides (immobilized GMP-140 [2]): inhibited adhesion; inhibition of neutrophil adhesion to immobilized GMP-140 by peptides (immobilized GMP-140 [2]; listed as amino acids 66 to 78): very active

Now from value to substance, other results behind:

% Binding of Biotinylated MAbs G1 (immobilized GMP-140 [1]) [%] | % Binding of Biotinylated MAbs G2 (immobilized GMP-140 [1]) [%] | % Binding of Biotinylated MAbs G3 (immobilized GMP-140 [1]) [%] | Substance | further results
107 | 92 | 104 | EGF 128-132: synthetic peptide, amino acids 128-132 of the EGF domain of GMP-140 (SKQGE; UniProt P16109 169-173, looked up, fragment) | 
94 | 92 | 108 | EGF 145-158: synthetic peptide, amino acids 145-158 of the EGF domain of GMP-140 (YPGFYGPECEYVRE; UniProt P16109 186-199, looked up, fragment) | 
100 | 100 | 100 | C-TERMINUS 761-777: C-terminal peptide (amino acid residues 761-777 of GMP-140) as a negative control (KDDGKCPLNPHSHLGTY; UniProt P16109 802-818, looked up, fragment) [reference compound] | 
23 | 26 | 24 | LECTIN 19-34: synthetic peptide, amino acids 19-34 of the lectin domain of GMP-140 (CQNRYTDLVAIQNKNE; UniProt P16109 60-75, looked up, fragment) | competition by fluid-phase competitor for neutrophil adhesion to immobilized lectin peptide 19-34-KLH conjugate (neutrophils [4]): compete for adhesion; inhibition of neutrophil adhesion to immobilized GMP-140 by peptides (immobilized GMP-140 [2]): inhibited adhesion
97 | 104 | 109 | EGF 134-141: synthetic peptide, amino acids 134-141 of the EGF domain of GMP-140 (LETIGNYT; UniProt P16109 175-182, looked up, fragment) | 
92 | 92 | 104 | LECTIN/EGF 118-126: synthetic peptide, amino acids 118-126 of GMP-140 (lectin/EGF domains) (YTASCQDMS; UniProt P16109 159-167, looked up, fragment) | 
97 | 93 | 96 | LECTIN 91-108: synthetic peptide, amino acids 91-108 of the lectin domain of GMP-140 (VEIYIKSPSAPGKWNDEH; UniProt P16109 132-149, looked up, fragment) | 

From EP0714912B1, “GMP-140 ligand” (THE BOARD OF REGENTS OF THE UNIVERSITY OF OKLAHOMA, priority 1990, dated 1992)
